Experiment [1] has as its target T1, Aro3 (Saccharomyces cerevisiae, UniProt P14843, D154N).
T1 construct: full-length ORF in pET21, C-terminal His6 tag, expressed in E. coli Rosetta 2 (DE3); Ni-NTA and gel filtration; dimer in crystal
Put plainly: DAHP formation, periodate-thiobarbituric acid assay at […] nm. To be noted: read-out: % remaining activity at 10 mM. The format is biochemical.

Experiment [2] deals with T1, Aro3. Put plainly: isothermal titration calorimetry. The format is binding. On the technique in general: ITC needs no label: the signal is the heat of the interaction.
For experiment [3], the target named is T2, Aro3 (Saccharomyces cerevisiae, UniProt P14843).
T2 construct: full-length ORF in pET21, C-terminal His6 tag, expressed in E. coli Rosetta 2 (DE3); Ni-NTA and gel filtration; dimer in crystal
As to the kind of experiment: DAHP formation, periodate-thiobarbituric acid assay at […] nm. To be noted: read-out: % inhibition at 0.1 mM. In kind it is biochemical.

Experiment [4] deals with T2, Aro3. As to the kind of experiment: isothermal titration calorimetry. In kind it is binding.
Experiment [5] has as its target T3, Aro3 (Saccharomyces cerevisiae, UniProt P14843, K222L).
T3 construct: full-length ORF in pET21, C-terminal His6 tag, expressed in E. coli Rosetta 2 (DE3); Ni-NTA and gel filtration; dimer in crystal
As to the kind of experiment: DAHP formation, periodate-thiobarbituric acid assay at […] nm. In kind it is biochemical. The settings on record: read-out: % inhibition at 0.1 mM.

Molecules are shown by their SMILES.

T2 sequence (P14843 whole entry): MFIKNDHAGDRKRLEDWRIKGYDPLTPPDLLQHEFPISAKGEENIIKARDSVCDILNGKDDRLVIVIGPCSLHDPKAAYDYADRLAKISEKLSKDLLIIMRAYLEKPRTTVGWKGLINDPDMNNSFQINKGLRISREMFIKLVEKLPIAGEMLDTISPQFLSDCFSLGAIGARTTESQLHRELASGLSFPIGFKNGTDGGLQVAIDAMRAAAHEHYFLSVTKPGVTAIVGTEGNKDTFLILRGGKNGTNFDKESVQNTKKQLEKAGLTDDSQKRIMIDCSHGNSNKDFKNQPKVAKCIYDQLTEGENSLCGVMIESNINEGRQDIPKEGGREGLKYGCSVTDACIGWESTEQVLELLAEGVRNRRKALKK
T1 sequence (P14843 whole entry D154N): as the sequence (P14843 whole entry) above, with D154N counted along it
T3 sequence (P14843 whole entry K222L): as the sequence (P14843 whole entry) above, with K222L counted along it

For orientation: remaining activity means what remains of the control signal, in per cent. As usually defined, the Kd is the constant that tells how readily two partners part at equilibrium. Lower therefore signals tighter binding. Usually inhibition stands for the share of the control response that was lost under treatment. With `N[C@@H](Cc1ccccc1)C(=O)O` [L-Phe], in experiment [1], the remaining activity at 10000 µM turned out to be 71.2%. The dissociation constant Kd in experiment [2] was determined as 336 ± 31.2 µM; in experiment [4], 31.4 µM. Moreover, the inhibition at 100 µM in experiment [3] and in experiment [5] was about 50% throughout.

These data come from article PMC10349828, “Mechanistic investigation of a D to N mutation in DAHP synthase that dictates carbon flux into the shikimate pathway in yeast” (Communications Chemistry, 2023).
